In US12624019B2, “Indazole derivative, and preparation method therefor and use thereof” (Leadingtac Pharmaceutical (Shaoxing) Co., Ltd., priority 2020, dated 2026):

Molecular target: T1, IRAK4 kinase (Homo sapiens, UniProt Q9NWZ3)
T1 sequence (Q9NWZ3 1-460): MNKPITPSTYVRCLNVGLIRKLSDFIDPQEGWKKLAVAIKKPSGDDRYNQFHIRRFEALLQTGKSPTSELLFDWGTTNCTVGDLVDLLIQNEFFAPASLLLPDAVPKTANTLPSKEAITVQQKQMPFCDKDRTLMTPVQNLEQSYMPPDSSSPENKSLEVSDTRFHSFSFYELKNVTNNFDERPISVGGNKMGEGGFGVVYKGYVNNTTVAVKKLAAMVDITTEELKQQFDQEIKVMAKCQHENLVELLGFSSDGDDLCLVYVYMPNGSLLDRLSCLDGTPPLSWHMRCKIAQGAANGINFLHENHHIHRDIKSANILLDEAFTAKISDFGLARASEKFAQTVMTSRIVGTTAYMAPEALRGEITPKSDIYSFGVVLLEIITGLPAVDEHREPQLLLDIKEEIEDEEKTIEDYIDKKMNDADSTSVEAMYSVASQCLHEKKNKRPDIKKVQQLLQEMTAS
Assay: IRAK4 kinase activity test (KinEASE-STK HTRF kit)
Format: biochemical
Settings: IRAK4 kinase inhibition, 7 μM ATP, 37° C. 120 min
Procedure: KinEASE-STK Si serine/threonine kinase kit (Cisbio) was used to detect the inhibitory effect of the compound on IRAK4 kinase activity. The specific method was: the compound was dissolved in dimethyl sulfoxide, and then it was diluted with the buffer solution of the kit by equal gradient to make the final concentration range of the tested compound in the reaction system 10000 nM-0.038 nM, then 2.5 nM kinase, 1 μM biotinylated polypeptide substrate and 7 μM adenosine triphosphate (ATP) were added in sequence and incubated at 37° C. for 120 min. Subsequently, anti-phosphorylated serine/threonine antibody coupled with europium element compound and modified XL665 streptavidin were added to the reaction system to terminate the reaction. After incubating at room temperature for 1 h, the fluorescence intensity of each well at the emission wavelength of 620 nm and 665 nm and the excitation wavelength of 337 nm was determined in HTRF mode on the microplate reader EnVision (PerkinElmer), the ratio value was calculated using the formula Ratio=(665 nm/620 nm)×10^4. By comparing with the fluorescence intensity ratio of the control group, the inhibition rate of the compound at each concentration was calculated, and then the IC50 value of the compound was obtained by fitting the nonlinear curve with the logarithmic concentration-inhibition rate by GraphPad Prism 7.

IC50: 55.7 nM
SMILES: CC(C)(O)c1cc2nn(C3CCN(CCCC4CCN(c5ccc6c(c5)C(=O)N(C5CCC(=O)NC5=O)C6=O)CC4)CC3)cc2cc1NC(=O)c1cccc(C(F)(F)F)n1 (stereo not shown) [Example 6, N-(2-(1-(3-(1-(2-(2,6-dioxopiperidin-3-yl)-1,3-dioxoisoindolin-5-yl)piperidin-4-yl)propyl)piperidin-4-yl)-6-(2-hydroxyprop-2-yl)-2H-indazol-5-yl)-6-(trifluoromethyl) pyridinecarboxamide]
